Data taken from US6689790B2, “Substituted triazolopyridine compounds” (Hoffmann-La Roche Inc., priority 2001, dated 2004).

Molecular target: T1, human adenosine A2A receptor (Homo sapiens, UniProt P29274)
T1 construct: expressed in transfected cells; host or cells: CHO cells, semliki forest virus expression system; washed membranes
Assay: [3H]-SCH-58261 binding assay, human adenosine A2A receptor (CHO cell membranes, SPA)
Details: [3H]-SCH-58261 displacement; list of examples 10-108; read-out: hA2a Ki
Method: Human Adenosine A2A Receptor
The human adenosine A2A receptor was recombinantly expressed in chinese hamster ovary (CHO) cells using the semliki forest virus expression system. Cells were harvested, washed twice by centrifugation, homogenized and again washed by centrifugation. The final washed membrane pellet was suspended in a Tris (50 mM) buffer containing 120 mM NaCl, 5 mM KCl, 2 mM CaCl2 and 10 mM MgCl2 (pH 7.4) (buffer A). […] Compounds were tested at 10 concentrations from 10 μM-0.3 nM. All assays were conducted in duplicate and repeated at least two times. Assay plates were incubated for 1 hour at room temperature before centrifugation and then bound ligand determined using a Packard Topcount scintillation counter. IC50 values were calculated using a non-linear curve fitting program and Ki values calculated using the Cheng-Prussoff equation.

T1 sequence (P29274 whole entry): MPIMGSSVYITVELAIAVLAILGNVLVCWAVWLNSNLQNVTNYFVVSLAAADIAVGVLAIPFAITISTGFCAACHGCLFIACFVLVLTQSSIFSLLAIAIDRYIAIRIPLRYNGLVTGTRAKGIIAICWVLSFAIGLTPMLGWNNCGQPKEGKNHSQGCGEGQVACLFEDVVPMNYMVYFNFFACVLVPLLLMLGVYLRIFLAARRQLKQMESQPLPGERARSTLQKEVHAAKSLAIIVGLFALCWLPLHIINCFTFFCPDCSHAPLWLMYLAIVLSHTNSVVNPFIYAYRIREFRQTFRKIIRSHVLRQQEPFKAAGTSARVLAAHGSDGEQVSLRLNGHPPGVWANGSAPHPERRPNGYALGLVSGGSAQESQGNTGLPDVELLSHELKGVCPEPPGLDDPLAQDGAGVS

SMILES	Ki [nM]
CC1CCCN1C(=O)c1cc(N)c2nc(-c3ccccc3)nn2c1 (stereo not shown) [Example 70, (8-Amino-2-phenyl-[1,2,4]triazolo[1,5-a]pyridin-6-yl)-(2-methyl-pyrrolidin-1-yl)-methanone]	145
Nc1cc(C(=O)N2CCSCC2)cn2nc(-c3ccco3)nc12 [Example 49, (8-Amino-2-furan-2-yl-[1,2,4]triazolo[1,5-a]pyridin-6-yl)-thiomorpholin-4-yl-methanone]	638
CCN(CC)C(=O)c1cc(N)c2nc(-c3ccco3)nn2c1 [Example 33, 8-Amino-2-furan-2-yl-[1,2,4]triazolo[1,5-a]pyridine-6-carboxylic acid diethylamide]	422
CCCN(C)C(=O)c1cc(N)c2nc(-c3ccc(C)s3)nn2c1 [Example 101, 8-Amino-2-(5-methyl-thiophen-2-yl)-[1,2,4]triazolo[1,5-a]pyridine-6-carboxylic acid methyl-propyl-amide]	228
Cc1ccc(-c2nc3c(N)cc(C(=O)N4CCCC4C)cn3n2)s1 (stereo not shown) [Example 96, [8-Amino-2-(5-methyl-thiophen-2-yl)-[1,2,4]triazolo[1,5-a]pyridin-6-yl]-(2-methyl-pyrrolidin-1-yl)-methanone]	154
CC1CCCN1C(=O)c1cc(N)c2nc(-c3nccs3)nn2c1 (stereo not shown) [Example 105, (8-Amino-2-thiazol-2-yl-[1,2,4]triazolo[1,5-a]pyridin-6-yl)-(2-methyl-pyrrolidin-1-yl)-methanone]	654
CN(CCc1ccccc1)C(=O)c1cc(N)c2nc(-c3ccco3)nn2c1 [Example 50, 8-Amino-2-furan-2-yl-[1,2,4]triazolo[1,5-a]pyridine-6-carboxylic acid methyl-phenethyl-amide]	251
CCN(CC)C(=O)C1CCCN(C(=O)c2cc(N)c3nc(-c4ccccc4)nn3c2)C1 (stereo not shown) [Example 73, 1-(8-Amino-2-phenyl-[1,2,4]triazolo[1,5-a]pyridine-6-carbonyl)-piperidine-3-carboxylic acid diethylamide]	998
Cc1ccc(-c2nc3c(N)cc(C(=O)N4CCSCC4)cn3n2)o1 [Example 90, [8-Amino-2-(5-methyl-furan-2-yl)-[1,2,4]triazolo[1,5-a]pyridin-6-yl]-thiomorpholin-4-yl-methanone]	140
Nc1cc(C(=O)N2CCCCC2)cn2nc(-c3ccccc3)nc12 [Example 69, (8-Amino-2-phenyl-[1,2,4]triazolo[1,5-a]pyridin-6-yl)-piperidin-1-yl-methanone]	554
CN(C)C(=O)CN(C)C(=O)c1cc(N)c2nc(-c3ccco3)nn2c1 [Example 44, 8-Amino-2-furan-2-yl-[1,2,4]triazolo[1,5-a]pyridine-6-carboxylic acid dimethylcarbamoyl-methyl-methyl-amide]	343
CCCN(CCC)C(=O)c1cc(N)c2nc(-c3cccs3)nn2c1 [Example 54, 8-Amino-2-thiophen-2-yl-[1,2,4]triazolo[1,5-a]pyridine-6-carboxylic acid dipropylamide]	552
Nc1cc(C(=O)N2CCSCC2)cn2nc(-c3cccs3)nc12 [Example 66, (8-Amino-2-thiophen-2-yl-[1,2,4]triazolo[1,5-a]pyridin-6-yl)-thiomorpholin-4-yl-methanone]	982
CC1CCCN(C(=O)c2cc(N)c3nc(-c4cccs4)nn3c2)C1 (stereo not shown) [Example 62, (8-Amino-2-thiophen-2-yl-[1,2,4]triazolo[1,5-a]pyridin-6-yl)-(3-methyl-piperidin-1-yl)-methanone]	716
CN(C)C(=O)CN(C)C(=O)c1cc(N)c2nc(-c3ccccc3)nn2c1 [Example 77, 8-Amino-2-phenyl-[1,2,4]triazolo[1,5-a]pyridine-6-carboxylic acid dimethylcarbamoyl-methyl-methyl-amide]	674
Nc1cc(C(=O)N2CCCC2)cn2nc(-c3nccs3)nc12 [Example 104, (8-Amino-2-thiazol-2-yl-[1,2,4]triazolo[1,5-a]pyridin-6-yl)-pyrrolidin-1-yl-methanone]	564
CC1CCCCN1C(=O)c1cc(N)c2nc(-c3ccccc3)nn2c1 (stereo not shown) [Example 72, (8-Amino-2-phenyl-[1,2,4]triazolo[1,5-a]pyridin-6-yl)-(2-methyl-piperidin-1-yl)-methanone]	361
Cc1ccc(-c2nc3c(N)cc(C(=O)N4CCCC(C)C4)cn3n2)s1 (stereo not shown) [Example 100, [8-Amino-2-(5-methyl-thiophen-2-yl)-[1,2,4]triazolo[1,5-a]pyridin-6-yl]-(3-methyl-piperidin-1-yl)-methanone]	178
CC1CCCN(C(=O)c2cc(N)c3nc(-c4ccccn4)nn3c2)C1 (stereo not shown) [Example 30, (8-Amino-2-pyridin-2-yl-[1,2,4]triazolo[1,5-a]pyridin-6-yl)-(3-methyl-piperidin-1-yl)-methanone]	578

SMILES	Ki [nM]
CCCN(C)C(=O)c1cc(N)c2nc(-c3ccccn3)nn2c1 [Example 31, 8-Amino-2-pyridin-2-yl-[1,2,4]triazolo[1,5-a]pyridine-6-carboxylic acid methyl-propyl-amide]	796
COC[C@H]1CCCN1C(=O)c1cc(N)c2nc(-c3cccs3)nn2c1 [Example 57, (8-Amino-2-thiophen-2-yl-[1,2,4]triazolo[1,5-a]pyridin-6-yl)-(2-R-methoxymethyl-pyrrolidin-1-yl)-methanone]	242
Cc1ccc(-c2nc3c(N)cc(C(=O)N4CC(C)OC(C)C4)cn3n2)o1 (stereo not shown) [Example 92, [8-Amino-2-(5-methyl-furan-2-yl)-[1,2,4]triazolo[1,5-a]pyridin-6-yl]-(2,6-dimethyl-morpholin-4-yl)-methanone]	249
CCN(CC)C(=O)c1cc(N)c2nc(-c3ccc(C)o3)nn2c1 [Example 82, 8-Amino-2-(5-methyl-furan-2-yl)-[1,2,4]triazolo[1,5-a]pyridine-6-carboxylic acid diethylamide]	131
NC(=O)[C@H]1CCCN1C(=O)c1cc(N)c2nc(-c3cccs3)nn2c1 [Example 59, 1-(8-Amino-2-thiophen-2-yl-[1,2,4]triazolo[1,5-a]pyridine-6-carbonyl)-pyrrolidine-2-R-carboxylic acid amide]	215
CC1CCCN(C(=O)c2cc(N)c3nc(-c4ccccc4)nn3c2)C1 (stereo not shown) [Example 78, (8-Amino-2-phenyl-[1,2,4]triazolo[1,5-a]pyridin-6-yl)-(3-methyl-piperidin-1-yl)-methanone]	385
CCN(CCOC)C(=O)c1cc(N)c2nc(-c3ccco3)nn2c1 [Example 45, 8-Amino-2-furan-2-yl-[1,2,4]triazolo[1,5-a]pyridine-6-carboxylic acid ethyl-(2-methoxy-ethyl)-amide]	506
CCN(CCOC)C(=O)c1cc(N)c2nc(-c3ccc(C)o3)nn2c1 [Example 87, 8-Amino-2-(5-methyl-furan-2-yl)-[1,2,4]triazolo[1,5-a]pyridine-6-carboxylic acid ethyl-(2-methoxy-ethyl)-amide]	104
CCCN(C)C(=O)c1cc(N)c2nc(-c3ccc(C)o3)nn2c1 [Example 89, 8-Amino-2-(5-methyl-furan-2-yl)-[1,2,4]triazolo[1,5-a]pyridine-6-carboxylic acid methyl-propyl-amide]	178
CN(CCc1ccccc1)C(=O)c1cc(N)c2nc(-c3ccccn3)nn2c1 [Example 32, 8-Amino-2-pyridin-2-yl-[1,2,4]triazolo[1,5-a]pyridine-6-carboxylic acid methyl-phenethyl-amide]	387
Nc1cc(C(=O)N2CCCCC2)cn2nc(-c3cccs3)nc12 [Example 52, (8-Amino-2-thiophen-2-yl-[1,2,4]triazolo[1,5-a]pyridin-6-yl)-piperidin-1-yl-methanone]	353
CC1CCCCN1C(=O)c1cc(N)c2nc(-c3cccs3)nn2c1 (stereo not shown) [Example 55, (8-Amino-2-thiophen-2-yl-[1,2,4]triazolo[1,5-a]pyridin-6-yl)-(2-methyl-piperidin-1-yl)-methanone]	260
Cc1ccc(-c2nc3c(N)cc(C(=O)N(C)CCc4ccccc4)cn3n2)o1 [Example 91, 8-Amino-2-(5-methyl-furan-2-yl)-[1,2,4]triazolo[1,5-a]pyridine-6-carboxylic acid methyl-phenethyl-amide]	112
CN(C)C(=O)CN(C)C(=O)c1cc(N)c2nc(-c3cccs3)nn2c1 [Example 60, 8-Amino-2-thiophen-2-yl-[1,2,4]triazolo[1,5-a]pyridine-6-carboxylic acid dimethylcarbamoyl-methyl-methyl-amide]	548
Nc1cc(C(=O)N2CC=CCC2)cn2nc(-c3ccccc3)nc12 [Example 80, (8-Amino-2-phenyl-[1,2,4]triazolo[1,5-a]pyridin-6-yl)-(3,6-dihydro-2H-pyridin-1-yl)-methanone]	289
COC[C@@H]1CCCN1C(=O)c1cc(N)c2nc(-c3ccc(C)o3)nn2c1 (stereo in doubt) [Example 86, [8-Amino-2-(5-methyl-furan-2-yl)-[1,2,4]triazolo[1,5-a]pyridin-6-yl]-(2-methoxymethyl-pyrrolidin-1-yl)-methanone]	230
COC[C@@H]1CCCN1C(=O)c1cc(N)c2nc(-c3cccs3)nn2c1 [Example 58, (8-Amino-2-thiophen-2-yl-[1,2,4]triazolo[1,5-a]pyridin-6-yl)-(2-S-methoxymethyl-pyrrolidin-1-yl)-methanone]	892
CC1CCCN1C(=O)c1cc(N)c2nc(-c3ccccn3)nn2c1 (stereo not shown) [Example 28, (8-Amino-2-pyridin-2-yl-[1,2,4]triazolo[1,5-a]pyridin-6-yl)-(2-methyl-pyrrolidin-1-yl)-methanone]	369
